The subject of assay [1] is Trichophyton mentagraphytes MTU-19024. The assay is described as follows: Minimum inhibitory concentration, anti-Trichophyton mentagraphytes activity test, strain MTU-19024. In kind it is cell-based. Particulars: Trichophyton, MTU19024, Sabouraud's dextrose agar, 27° C., a week. The method, then:
(§1) The activity was tested by the 10 time-step dilution test, using the Sabouraud's dextrose agar culture medium (2% dextrose, 1% pepton and 1.5% agar; pH 6.5±). A platinum loopful (about 10 μl) spore suspension (prepared from a reserved strain of Trichlophyton mentagraphytes and containing 1×10^6 cells/ml) was applied in the form of drawn lines on a plate of a culture medium containing the active ingredients. The culture medium plate was kept at 27° C. for a week and then visually observed to see if any colonies had formed. The minimum inhibitory concentration was defined as the minimum concentration with which formation of distinct colonies on the culture medium plate was not observed.

The subject of assay [2] is Trichophyton mentagraphytes MTU-19031. The assay is described as follows: Minimum inhibitory concentration, anti-Trichophyton mentagraphytes activity test, strain MTU-19031. In kind it is cell-based. The note with it: Trichophyton, MTU19031, Sabouraud's dextrose agar, 27° C., a week. The procedure:
as §1

In brackets after ≈: the same amount, converted by molar mass.

For `Cc1cc(C)nc(N(C)C(=S)Oc2ccc3c(c2)CCC3)c1` [compound 15, O--5-Indanyl N--methyl-N--(4,6-dimethyl-2-pyridyl)thiocarbamate], the minimal inhibitory concentration (MIC) in assay [1] and in assay [2] was 0.5 µg/mL (≈ 1.6 µM) each time.

Turning to `Cc1ccc(N(C)C(=S)Oc2ccc3c(c2)CCC3)nc1C` [compound 26, O--5-Indanyl N--methyl-N--(5,6-dimethyl-2-pyridyl)thiocarbamate], the minimum inhibitory concentration (MIC) in assay [1] and in assay [2] was 0.5 µg/mL (≈ 1.6 µM) in each case.

With `Cc1ccc(N(C)C(=S)Oc2ccc3c(c2)CCCC3)nc1C` [compound 27, O--5,6,7,8-Tetrahydro-2-naphthyl N--methyl-N--(5,6-dimethyl-2-pyridyl)-thiocarbamate], the MIC in assay [1] and in assay [2] was 0.5 µg/mL (≈ 1.53 µM) throughout.

Consider `COc1cccc(N(C)C(=S)Oc2ccc(C)cc2)n1` [compound 53, O--4-Methylphenyl N--(6-methoxy-2-pyridyl)-N--methylthiocarbamate], for which the MIC in assay [1] and in assay [2] was 0.5 µg/mL (≈ 1.73 µM) throughout.

On to `CNc1cccc(N(C)C(=S)Oc2ccc(C(C)(C)C)cc2)n1` [compound 58, O--4-t-Butylphenyl N--methyl-N--(6-methylamino-2-pyridyl)thiocarbamate], for which the MIC in assay [1] and in assay [2] was 0.5 µg/mL (≈ 1.52 µM) in each case.

As for `CCCc1ccc(OC(=S)N(C)c2cccc(OC)n2)cc1` [compound 65, O--4-Propylphenyl N--(6-methoxy-2-pyridyl)-N--methylthiocarbamate], the minimum inhibitory concentration (MIC) in assay [1] and in assay [2] was 0.5 µg/mL (≈ 1.58 µM) throughout.

Turning to `Cc1cccc(N(C)C(=S)Oc2ccc3c(c2)CCCC3)n1` [compound 8, O--5,6,7,8-Tetrahydro-2-naphthyl N--methyl-N--(6-methyl-2-pyridyl)thiocarbamate], the minimum inhibitory concentration (MIC) in assay [1] and in assay [2] was 0.5 µg/mL (≈ 1.6 µM) in each case.

With `COc1cccc(N(C)C(=S)Oc2ccc3c(c2)C2CCC3CC2)n1` [compound 21, O--1,4-Ethano-1,2,3,4-tetrahydro-6-naphthyl N--(6-methoxy-2-pyridyl)-N--methylthiocarbamate], the MIC in assay [1] and in assay [2] was 0.5 µg/mL (≈ 1.41 µM) in each case.

As to `Cc1cccc(N(C)C(=S)Oc2ccc3ccccc3c2)n1` [Compound No. 2, O-2-Naphthyl N-methyl-N-(6-methyl-2-pyridyl)thiocarbamate], the MIC in assay [1] and in assay [2] was 0.5 µg/mL (≈ 1.62 µM) each time.

Consider `CN(C)c1cccc(N(C)C(=S)Oc2ccc(C(F)(F)F)cc2)n1` [compound 68, O--4-Trifluoromethylphenyl N--(6-dimethylamino-2-pyridyl)-N--methylthiocarbamate], for which the MIC in assay [1] and in assay [2] was 0.5 µg/mL (≈ 1.41 µM) in each case.

For the compound `CCC(C)(C)c1ccc(OC(=S)N(C)c2cccc(OC)n2)cc1` [compound 19, O--4-t-Pentylphenyl N--(6-methoxy-2-pyridyl)-N--methylthiocarbamate], the minimum inhibitory concentration (MIC) in assay [1] and in assay [2] was 0.5 µg/mL (≈ 1.45 µM) in each case.

As to `COc1cccc(N(C)C(=S)Oc2ccc(C(C)C)cc2)n1` [compound 30, O--4-Isopropylphenyl N--(6-methoxy-2-pyridyl)-N--methylthiocarbamate], the MIC in assay [1] and in assay [2] was 0.5 µg/mL (≈ 1.58 µM) each time.

Take `Cc1ccc(N(C)C(=S)Oc2ccc3ccccc3c2)nc1C` [compound 25, O--2-Naphthyl N--methyl-N--(5,6-dimethyl-2-pyridyl)thiocarbamate]: the MIC in assay [1] and in assay [2] was 0.5 µg/mL (≈ 1.55 µM) each time.

As to `COc1cccc(N(C)C(=S)Oc2ccc(C(F)(F)F)cc2)n1` [compound 43, O-- 4-Trifluoromethylphenyl N--(6-methoxy-2-pyridyl)-N--methylthiocarbamate], the minimum inhibitory concentration (MIC) in assay [1] came out at 0.5 µg/mL (≈ 1.46 µM); in assay [2] it was 0.05 µg/mL (≈ 0.146 µM).

On to `CCc1ccc(OC(=S)N(C)c2cccc(OC)n2)cc1` [compound 33, O--4-Ethylphenyl N--(6-methoxy-2-pyridyl)-N--methylthiocarbamate], for which the results for the MIC in assay [1] and in assay [2] were 0.5 µg/mL (≈ 1.65 µM) and 0.05 µg/mL (≈ 0.165 µM), respectively.

By MIC is commonly meant the lowest concentration found to suppress growth. Low values mean a more susceptible organism, high ones a less susceptible organism.

Values taken from patent publication US4621090A, “Antifungal compositions” (Toyo Soda Manufacturing Co., Ltd., priority 1983, dated 1986).
